# Patent US12552798B2, “Substituted imidazolecarboxamide as Bruton's tyrosine kinase inhibitors” (Henan Zhiwei Biomedicine Co., Ltd., priority 2019, dated 2026)
# Like-named read-outs stand apart in the source and are kept apart here.
# Tests used:
# EGFR = EGFR (Homo sapiens (Human), UniProt P00533); experiment: EGFR kinase inhibitory assay (ELISA); assay type: biochemical; details: for Selectivity Ratio (BTK and EGFR): EGFR IC50 relative to BTK IC50; for IC50: ELISA, 3 μmol/L ATP
# Procedure: (§1) BTK, EGFR, BMX, or ITK Inhibitory Assay Procedure for BTK, BMX, EGFR and ITK Inhibitory Assay:
# (§2) Kinase inhibitory activities of compounds were evaluated using the Enzyme-linked immunosorbent assay (ELISA). The kinase enzyme of BTK, BMX, EGFR and ITK were purchased from Carna Bioscience (Kobe, Japan). A total of 10 ng/mL antiphosphotyrosine (PY713) antibody (abcam, Cambridge Science Park, UK) was precoated in 96-well ELISA plates. The kinase enzymes in each reaction well were set to BTK (101.25 ng/mL), BMX (90 ng/mL), EGFR (90 ng/mL) or ITK (120 ng/mL) and incubated with indicated compounds in 1× reaction buffer (50 mmol/L HEPES pH 7.4, 20 mmol/L MgCl2, 0.1 mmol/L MnCl2, 1 mmol/L DTT) containing 20 μmol/L (the final concentration of substrate in ITK reaction was 30 μmol/L) substrate (NH2-ETVYSEVRK-biotin) at 25° C. for 1 h. Then, a total of 3 μmol/L ATP was added and the reaction was continued for 2 hrs. The products of reaction were transferred into 96-well ELISA plates containing antibody and incubated at 25° C. for 30 min. After incubation, the wells were washed with PBS and then incubated with horseradish peroxidase […]-conjugated streptavidin. The wells were visualized using 3,3′,5,5′-tetramethylbenzidine (TMB), and chromogenic reaction was ended with 2 mol/L H2SO4, the absorbance was read with a multimode plate reader (PerkinElmer, USA) at 450 nm. IC50 values and curve fits were obtained using Prism (GraphPad Software).
# TMD8 = experiment: Cell antiproliferative activity assay (CellTiter-Glo), TMD8; assay type: cell-based; details: read-out: Cell Growth IC50 (nM) TMD8
# Procedure: (§3) Cell Antiproliferative Activity Assay
# (§4) Cell antiproliferative activity was evaluated by the CellTiter-Glo (Promega, USA) assay. Make 1000× compounds solution in DMSO, add 1 μl 1000× compounds to […] growth medium to make 20× compounds. Dilute cell suspensions in growth medium to desired density and 95 μl were taken to 96-well plate. Add 5 μl 20× compounds into 96-well plate according to the plate map. Final DMSO concentration in each well was 0.1%. Then the cell was incubated at 37° C., 5% CO2 for 72 hs. Equilibrate the assay plate to room temperature before measurement. Add 20 μl of CellTiter-Glo© Reagent into each well. Mix contents for 2 minutes on an orbital shaker to induce cell lysis. Incubate at room temperature for 10 minutes to stabilize luminescent signal. Record luminescence using EnVision Multilabel Reader (PerkinElmer). Cell viability (CV %) was calculated relative to vehicle (DMSO) treated control wells using following formula: Cell viability (%)=(RLU compound−RLU blank)/(RLU control−RLU blank)*100%. The IC50 values were calculated using GraphPad Prism 6.0 software, fitting to a 4-parameter equation to generate concentration response curves. All assays were conducted with three parallel samples and three repetitions.
# 293T = experiment: Cell antiproliferative activity assay (CellTiter-Glo), 293T; assay type: cell-based; details: 72 hs, read-out: Cell Growth IC50 (nM) 293T
# Procedure: as §3, §4
# BTK = BTK (Homo sapiens (Human), UniProt Q06187); experiment: BTK kinase inhibitory assay (ELISA); assay type: biochemical; details: 3 μmol/L ATP
# BTK, sequence (Q06187 whole entry): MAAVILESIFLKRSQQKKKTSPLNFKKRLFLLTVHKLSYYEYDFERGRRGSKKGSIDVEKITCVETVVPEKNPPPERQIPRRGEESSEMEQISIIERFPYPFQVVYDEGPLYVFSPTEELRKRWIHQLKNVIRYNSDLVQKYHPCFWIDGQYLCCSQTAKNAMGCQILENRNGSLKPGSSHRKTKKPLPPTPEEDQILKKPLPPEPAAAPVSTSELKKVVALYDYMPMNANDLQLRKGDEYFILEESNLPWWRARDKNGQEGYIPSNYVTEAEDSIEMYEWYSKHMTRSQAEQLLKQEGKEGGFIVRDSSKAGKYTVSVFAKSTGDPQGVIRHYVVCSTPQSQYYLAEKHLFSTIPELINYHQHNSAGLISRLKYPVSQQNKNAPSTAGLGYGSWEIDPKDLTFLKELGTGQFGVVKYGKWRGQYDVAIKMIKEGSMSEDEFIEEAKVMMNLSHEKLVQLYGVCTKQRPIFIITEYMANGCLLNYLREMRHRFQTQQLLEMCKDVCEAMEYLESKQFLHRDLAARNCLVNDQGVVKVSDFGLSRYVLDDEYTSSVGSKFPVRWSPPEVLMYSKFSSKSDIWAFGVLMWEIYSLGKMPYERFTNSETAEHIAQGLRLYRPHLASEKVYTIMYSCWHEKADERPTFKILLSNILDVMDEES
# Procedure: as §1, §2
# BMX = BMX (Homo sapiens (Human), UniProt P51813); experiment: BMX kinase inhibitory assay (ELISA); assay type: biochemical; details: for Selectivity Ratio (BTK and BMX): BMX IC50 relative to BTK IC50; for IC50: ELISA, 3 μmol/L ATP
# BMX, sequence (P51813 whole entry): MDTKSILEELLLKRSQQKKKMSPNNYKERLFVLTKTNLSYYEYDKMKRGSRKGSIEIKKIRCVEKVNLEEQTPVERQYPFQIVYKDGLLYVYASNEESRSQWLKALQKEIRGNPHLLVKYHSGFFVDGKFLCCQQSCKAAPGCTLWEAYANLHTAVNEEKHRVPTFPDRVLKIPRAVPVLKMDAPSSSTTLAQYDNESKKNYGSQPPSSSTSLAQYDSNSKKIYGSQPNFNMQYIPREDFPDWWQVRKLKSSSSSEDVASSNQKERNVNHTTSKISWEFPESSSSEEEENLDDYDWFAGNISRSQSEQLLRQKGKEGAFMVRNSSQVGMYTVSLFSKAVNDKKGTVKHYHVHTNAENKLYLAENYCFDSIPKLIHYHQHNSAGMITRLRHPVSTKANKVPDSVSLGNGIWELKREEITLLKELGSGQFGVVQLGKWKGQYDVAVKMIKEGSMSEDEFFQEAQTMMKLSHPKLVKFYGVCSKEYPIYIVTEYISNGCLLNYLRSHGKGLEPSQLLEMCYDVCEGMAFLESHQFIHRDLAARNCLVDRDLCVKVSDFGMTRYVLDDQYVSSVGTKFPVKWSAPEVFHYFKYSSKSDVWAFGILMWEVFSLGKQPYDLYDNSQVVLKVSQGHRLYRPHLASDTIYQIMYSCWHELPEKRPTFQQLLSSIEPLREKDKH
# Procedure: as §1, §2
# ITK = ITK (Homo sapiens (Human), UniProt Q08881); experiment: ITK kinase inhibitory assay (ELISA); assay type: biochemical; details: for IC50: ELISA, 3 μmol/L ATP; for Selectivity Ratio (BTK and ITK): ITK IC50 relative to BTK IC50
# ITK, sequence (Q08881 whole entry): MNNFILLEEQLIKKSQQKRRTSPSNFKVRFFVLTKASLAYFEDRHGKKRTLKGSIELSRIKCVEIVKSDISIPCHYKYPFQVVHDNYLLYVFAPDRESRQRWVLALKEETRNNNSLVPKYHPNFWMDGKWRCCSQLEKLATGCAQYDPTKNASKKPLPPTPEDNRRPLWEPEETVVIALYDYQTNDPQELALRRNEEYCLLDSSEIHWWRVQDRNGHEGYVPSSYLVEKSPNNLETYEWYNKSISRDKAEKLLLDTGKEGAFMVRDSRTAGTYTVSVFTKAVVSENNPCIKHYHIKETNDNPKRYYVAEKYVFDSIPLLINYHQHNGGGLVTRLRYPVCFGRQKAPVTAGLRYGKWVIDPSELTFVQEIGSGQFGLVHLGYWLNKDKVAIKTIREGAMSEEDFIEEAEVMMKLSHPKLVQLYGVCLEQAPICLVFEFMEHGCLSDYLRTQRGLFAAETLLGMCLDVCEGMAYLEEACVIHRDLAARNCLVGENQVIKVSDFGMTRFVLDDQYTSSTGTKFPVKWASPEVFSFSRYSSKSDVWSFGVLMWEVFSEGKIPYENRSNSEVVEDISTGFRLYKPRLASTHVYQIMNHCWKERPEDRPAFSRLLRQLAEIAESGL
# Procedure: as §1, §2
# [1] = PK properties assay in SD rats; assay type: in vivo; details: rat, plasma
# Procedure: Six SD rats were divided into two groups, and compound was administered by gavage and tail vein injection. The intravenous injection group was administered 2 min, 5 min, 15 min, 30 min, 1 h, 2 h, 4 h, 6 h, 8 h, and 12 h after administration. 0.25 mL of blood samples were collected from the posterior orbital venous plexus at 5 min, 15 min, 30 min, 1 h, 2 h, 4 h, 6 h, 8 h, 12 h, and 24 h after administration. LC-MS/MS method was used to determine the concentration of compound in plasma samples from SD rats, and the pharmacokinetic parameters were calculated using WinNolin software.
# Ramos = experiment: Cell antiproliferative activity assay (CellTiter-Glo), Ramos; assay type: cell-based; details: 72 hs, read-out: Cell Growth IC50 (nM) Ramos
# Procedure: as §3, §4
# MOLM-13 = experiment: Cell antiproliferative activity assay (CellTiter-Glo), MOLM-13; assay type: cell-based; details: Homo sapiens; MOLM-13, 72 hs; read-out: Cell Growth IC50 (nM) MOLM-13
# Procedure: as §3, §4
# EGFR, sequence (P00533 25-1210): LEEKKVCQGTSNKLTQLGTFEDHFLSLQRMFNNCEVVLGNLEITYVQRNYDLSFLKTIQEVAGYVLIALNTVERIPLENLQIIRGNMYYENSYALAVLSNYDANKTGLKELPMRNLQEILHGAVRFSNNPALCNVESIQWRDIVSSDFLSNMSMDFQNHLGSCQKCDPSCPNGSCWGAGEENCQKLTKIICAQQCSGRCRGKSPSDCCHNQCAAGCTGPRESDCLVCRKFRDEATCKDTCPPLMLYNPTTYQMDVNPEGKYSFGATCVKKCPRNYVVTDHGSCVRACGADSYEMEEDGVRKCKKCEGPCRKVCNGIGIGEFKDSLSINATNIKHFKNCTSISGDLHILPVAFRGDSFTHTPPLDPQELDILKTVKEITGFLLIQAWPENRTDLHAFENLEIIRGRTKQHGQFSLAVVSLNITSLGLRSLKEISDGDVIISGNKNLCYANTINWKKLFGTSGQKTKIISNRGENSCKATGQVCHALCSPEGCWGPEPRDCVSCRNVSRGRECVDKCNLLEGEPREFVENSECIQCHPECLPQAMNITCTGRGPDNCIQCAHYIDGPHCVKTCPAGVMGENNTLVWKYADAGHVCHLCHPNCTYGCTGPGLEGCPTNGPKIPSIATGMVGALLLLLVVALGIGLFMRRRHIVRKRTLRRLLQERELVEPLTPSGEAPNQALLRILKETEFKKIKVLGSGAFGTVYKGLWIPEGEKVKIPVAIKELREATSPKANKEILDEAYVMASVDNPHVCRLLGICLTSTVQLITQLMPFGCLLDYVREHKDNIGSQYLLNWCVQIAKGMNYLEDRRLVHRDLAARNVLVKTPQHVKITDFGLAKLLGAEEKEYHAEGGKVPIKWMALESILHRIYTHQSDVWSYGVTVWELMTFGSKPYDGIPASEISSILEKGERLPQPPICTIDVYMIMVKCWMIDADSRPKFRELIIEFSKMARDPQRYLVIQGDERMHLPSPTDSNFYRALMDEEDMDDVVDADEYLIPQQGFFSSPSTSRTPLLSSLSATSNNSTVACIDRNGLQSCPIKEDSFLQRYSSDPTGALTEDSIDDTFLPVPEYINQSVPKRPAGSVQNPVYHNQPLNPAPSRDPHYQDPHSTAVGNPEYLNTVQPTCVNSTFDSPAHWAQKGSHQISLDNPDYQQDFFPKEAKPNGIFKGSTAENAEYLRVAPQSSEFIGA
SMILES,Selectivity Ratio (BTK and EGFR) (EGFR),IC50 (EGFR) [nM],IC50 (BTK) [nM],Selectivity Ratio (BTK and BMX) (BMX),IC50 (BMX) [nM],IC50 (ITK) [nM],Selectivity Ratio (BTK and ITK) (ITK),Vd ([1]; iv 5 mg/kg) [L/kg],clearance ([1]; iv 5 mg/kg) [mL/min/kg],half-life ([1]; iv 5 mg/kg) [min],AUC ([1]; po 5 mg/kg) [ng·h/mL],Cmax ([1]; po 5 mg/kg) [ng/mL],bioavailability ([1]; po 5 mg/kg) [%],half-life ([1]; po 5 mg/kg) [min],IC50 (Ramos) [nM],IC50 (MOLM-13) [nM],IC50 (Ramos; Homo sapiens) [nM],"IC50 (TMD8; TMD8, 72 hs) [nM]","IC50 (293T; Homo sapiens, HEK-293T) [nM]",other results
"NC(=O)c1c(-c2ccc(Oc3ccccc3)cc2)nc2n1NCCC2C1CCN(C(=O)/C=C/C(F)(F)F)CC1 (single isomer, unassigned) [10b (peak 2)]",638.75,39500,61.8,2.32,144,> 30000,>485.4,–,–,–,–,–,–,–,6440,–,–,257,–,IC50 (293T): 1910 nM
"NC(=O)c1c(-c2ccc(Oc3ccccc3)cc2)nc2n1NCCC2C1CCN(C(=O)/C=C/C(F)(F)F)CC1 (centres unmarked) [Example 10, 2-(4-Phenoxy-phenyl)-8-[1-(4,4,4-trifluoro-but-2-enoyl)-piperidin-4-yl]-5,6,7,8-tetrahydro-imidazo[1,2-b]pyridazine-3-carboxamide]",235.36,1930,8.2,6.04,49.5,10800,1314,–,–,–,–,–,–,–,–,–,2760,–,45300,"IC50 (TMD8; Homo sapiens, TMD8, TMD8, 72 hs): 51.6 nM"
"NC(=O)c1c(-c2ccc(Oc3ccccc3)cc2)nc2n1NCCC2C1CN(C(=O)/C=C/C(F)(F)F)C1 (centres unmarked) [Example 20, (E)-2-(4-phenoxyphenyl)-8-(1-(4,4,4-trifluorobut-2-enoyl)azetidin-3-yl)-5,6,7,8-tetrahydroimidazo[1,2-b]pyridazine-3-carboxamide]",405.5,–,–,8.79,–,–,1080.6,–,–,–,–,–,–,–,–,1360,294,–,–,–

# More lines, main results first:
Selectivity Ratio (BTK and EGFR) (EGFR),IC50 (EGFR) [nM],IC50 (BTK) [nM],Selectivity Ratio (BTK and BMX) (BMX),IC50 (BMX) [nM],IC50 (ITK) [nM],Selectivity Ratio (BTK and ITK) (ITK),Vd ([1]; iv 5 mg/kg) [L/kg],clearance ([1]; iv 5 mg/kg) [mL/min/kg],half-life ([1]; iv 5 mg/kg) [min],AUC ([1]; po 5 mg/kg) [ng·h/mL],Cmax ([1]; po 5 mg/kg) [ng/mL],bioavailability ([1]; po 5 mg/kg) [%],half-life ([1]; po 5 mg/kg) [min],IC50 (Ramos) [nM],IC50 (MOLM-13) [nM],IC50 (Ramos; Homo sapiens) [nM],SMILES,"IC50 (TMD8; TMD8, 72 hs) [nM]","IC50 (293T; Homo sapiens, HEK-293T) [nM]",other results
2.00,5.2,2.6,5.88,15.3,483,185.6,0.959,27,24.6,3430,923,52.9,84.6,–,–,–,"C=CC(=O)N1CCC(C2CCNn3c2nc(-c2ccc(Oc4ccccc4)cc2)c3C(N)=O)CC1 (single isomer, unassigned) [1a (peak 1)]",5.4,8450,–
365.37,2450,6.7,3.12,20.9,2020,301.5,1.6,59.8,18.6,1390,703,47.2,87,1270,3150,–,"NC(=O)c1c(-c2ccc(Oc3ccccc3)cc2)nc2n1NCCC2C1CCN(C(=O)/C=C/C(F)(F)F)CC1 (single isomer, unassigned) [10a (peak 1)]",16.5,1010,–
3.43,28.1,8.2,2.78,22.8,225,27.40,–,–,–,–,–,–,–,–,1100,725,"C#CC(=O)N1CCC(C2CCNn3c2nc(-c2ccc(Oc4ccccc4)cc2)c3C(N)=O)CC1 (centres unmarked) [Example 11, 2-(4-phenoxyphenyl)-8-(1-propioloylpiperidin-4-yl)-5,6,7,8-tetrahydroimidazo[1,2-b]pyridazine-3-carboxamide]",–,–,–
